Drawing on the METLIN SMRT retention time set (Domingo-Almenara et al. 2019), this text covers RP-LC retention time for 81 compounds.

Molecules are shown by their SMILES.

The series in a line: gradient 5% acetonitrile 3 min, to 50% in 2 min, to 85% in 15 min, held 3 min, 100 µL/min. Particulars: column: Zorbax Extend-C18 2.1 x 50 mm; eluents: water / acetonitrile, 0.1% formic acid. In outline:
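The system's dead and dwell volumes were 40 μL and 900 μL, with a Zorbax Extend-C18 column (2.1 × 50 mm, 1.8 μm) run at 100 μL/min in water and acetonitrile containing 0.1% formic acid each. Pure standards were analyzed in mixtures of ~100 molecules by HPLC–quadrupole time-of-flight mass spectrometry in positive and negative ionization mode. Retention time was assigned from computationally picked, manually inspected adduct peaks.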
`CCCCCCOC(=O)[C@@]1(O)CC2O[C@]1(C)n1c3ccccc3c3c4c(c5c6ccccc6n2c5c31)C(=O)NC4` yielded an RP-LC retention time of 1230 s. Next, `CCn1cnnc1C1CCN(C(=O)c2ccc3c(c2)OCO3)CC1`: 534 s. Next, `Nc1nc(-c2ccc(S(=O)(=O)N3CCOCC3)cc2)cs1`: 620 s. On to `Cc1ccc(CNC(=O)Cn2c(=O)cc(-c3nc(C(C)C)no3)c3ccccc32)cc1`, for which the RP-LC retention time was found to be 1010 s.

`O=C(c1ccc(OCC2CCCN2C(=O)COc2ccc(F)cc2)cc1)N1CCCC1` (stereo unspecified) yielded an RP-LC retention time of 761 s. The result for `Cc1nc(-c2cn(C(C)C)c3ncccc23)sc1C(=O)NCCC(C)C` reads 1070 s; that for `O=C(Nc1cc(-c2ccccn2)no1)c1ccc2c(c1)OCO2`, 772 s. The result for `O=C1C(Br)=Cc2cccc3cccc1c23` reads 996 s; that for `CC(C)Cn1c(=O)c(N2CCN(C(=O)c3ccc(Cl)cc3)CC2)nc2ccncc21`, 689 s. In turn, `CCOCCCNC(=O)C1CCCN(c2ccc(=O)n(-c3ccc(F)cc3)n2)C1` (stereo unspecified) yielded an RP-LC retention time of 697 s. `Cc1ccc(NC(=O)N2CCC(n3cnc4c(C)cccc4c3=O)CC2)cc1C` registered an RP-LC retention time of 872 s.

As to `COc1ccc(-c2ccc(C#N)c(SCC(=O)N3CCN(C)CC3)n2)cc1`, the RP-LC retention time was 583 s.

Regarding `Cc1ccc(CNC(=O)Cn2cccc(-c3nc(-c4ccc(Br)cc4)no3)c2=O)cc1`, the RP-LC retention time was found to be 1030 s. The result for `CCN(CC)C(=O)c1ccc2c(c1)N(CC(=O)N1CCC(C)CC1)C(=O)C1CCCCN21` (stereo unspecified) reads 838 s; that for `CSc1ccc(Cl)c(-c2nc(-c3ccc4oc(C)nc4c3)no2)c1`, 1260 s.

As to `Cc1csc(-c2ccc(N3CCN(C(=O)c4ccc5ccccc5n4)CC3)nc2)n1`, the RP-LC retention time was 833 s. Regarding `CCN(CC)C(=O)c1ccc2c(c1)nnn2CCNC(=O)Nc1ccc(Br)cc1`, the RP-LC retention time worked out at 779 s. `COCCn1c(SCc2nc(-c3ccc4c(c3)OCO4)no2)nc2cc3c(cc2c1=O)OCO3`: the RP-LC retention time came to 1060 s. For the compound `CCn1cc(-c2ccc(C)cc2)cc1C(=O)NCCCN1CCCC1=O`, the RP-LC retention time was 856 s. Turning to `COc1ccc(-c2nc(N3CCCC(C)C3)c3ccccc3n2)cc1` (stereo unspecified), the RP-LC retention time came to 836 s.

Turning to `CCCNC(=O)N1CCCN(C2=NS(=O)(=O)C(c3ccc(Cl)cc3)=C2C)CC1`, the RP-LC retention time was 794 s. Next, `Cc1ccccc1Nc1c(-c2ccc(N(C)C)cc2)nc2cnccn12`: 833 s. Next, `O=C(CN1C(=O)NC2(CCCCC2)C1=O)Nc1ccccc1`: 722 s. Compound `O=C(Nc1ccccc1)C1(CCO)CC12CCOCC2` (stereo unspecified) yielded an RP-LC retention time of 639 s.

In turn, `CC(C)CNc1nc2ccncc2n(Cc2ccccc2)c1=O` came in with an RP-LC retention time of 672 s.

For `O=C(Nc1nccs1)c1csc(Nc2ccccc2)n1`, the RP-LC retention time was 815 s. `CC(C)OCCCNC(=O)Cn1nc2c(cc1=O)CCCCC2` yielded an RP-LC retention time of 698 s. Next, `O=C1NC2(CCN(C(=O)NCc3ccccc3)CC2)Oc2ccccc21`: 963 s; `COc1ccc(C2C(=O)N(C3CCCCC3)CC(=O)N2Cc2ccc3c(c2)OCO3)cc1OC` (stereo unspecified): 894 s; `CCCNS(=O)(=O)c1cc2n(c1)CCCN(C(C)C)C2=O`: 678 s. For the compound `Cc1ccc(C2Cn3cnc(C(=O)N4CCC(C(=O)NCCC5=CCCCC5)CC4)c3CO2)cc1` (stereo unspecified), the RP-LC retention time was 819 s. Consider `CCOc1ccc(S(=O)(=O)N2CCCC(C(=O)NC3CCCCCC3)C2)cc1` (stereo unspecified), for which the RP-LC retention time came out at 1060 s. As for `Cc1ccsc1CN1CCC(Cn2c(C)cnc2C)CC1`, the RP-LC retention time is 521 s.

Regarding `Fc1ccc(-c2nnc(Cc3nc(-c4ccc(Cl)cc4)no3)o2)cc1`, the RP-LC retention time came out at 1080 s. The result for `O=C(Cn1cccc1-c1nc(-c2ccccc2)cs1)N1CCOCC1` reads 934 s; that for `CCOCCOC(=O)C1=C(C)NC2=C(C(=O)C(C(=O)OC)C(C)C2)C1c1cccc(F)c1` (stereo unspecified), 894 s. The result for `Fc1ccc(-c2nc(-c3ccc(-n4cccn4)nc3)no2)cc1` reads 1230 s.

Regarding `Cc1ccc(N2C=C(C(=O)N3CCCCC3)S(=O)(=O)c3ccccc32)cc1C`, the RP-LC retention time was 953 s. The result for `O=S(=O)(c1ccc(-c2cnc(C3CCCC3)o2)s1)N1CCN(c2ncccn2)CC1` reads 1120 s. The result for `COc1ccc(-c2ncc3c(n2)CCN(S(=O)(=O)c2ccc(OC)cc2)C3)cc1` reads 991 s; that for `CC1CCN(S(=O)(=O)c2ccc3nn(C)c(=O)n3c2)CC1`, 744 s. Next, `O=C(C1CCN(c2cnc(N3CCOCC3)nc2)CC1)N1CCCCCC1`: 684 s; `O=C(NCCC1=CCCCC1)C1CCCN(c2cnc3nccnc3c2)C1` (stereo unspecified): 766 s. The compound `COc1ccc(S(=O)(=O)CCc2noc(C(=O)NCc3cc(OC)c(OC)c(OC)c3)n2)cc1` displayed an RP-LC retention time of 790 s.

`O=S(=O)(c1cccn2c(SCc3ccccc3F)nnc12)N1CCCCC1`: the RP-LC retention time is 869 s. The compound `CCN1CCN(CCCNC(=O)Cn2cnc3nc4c(cc3c2=O)CCCC4)CC1` returned an RP-LC retention time of 554 s. `O=C(Cc1cccs1)NCC(c1ccsc1)N1CCCC1` (stereo unspecified) came in with an RP-LC retention time of 558 s. Compound `CCOC(=O)c1cccc(Nc2c(-c3ccccc3)nc3cnccn23)c1` had an RP-LC retention time of 875 s. Next, `CCNC(=O)N1CCc2c([nH]c3ccccc23)C12C(=O)N(C)c1ccc(Br)cc12` (stereo unspecified): 857 s; `Cc1ccc(NC(=O)Cn2c(C)nc3onc(C)c3c2=O)cc1Cl`: 885 s. The result for `O=C(Cc1ccc(Br)cc1)Nc1nc(-c2ccccc2)cs1` reads 1100 s; that for `CCN1CCN(c2ccc(NC(=O)C(C)(C)C)c(C(=O)O)c2)CC1`, 594 s. `CCCn1cc(S(=O)(=O)Nc2cc(C)ccc2C)c2cccnc21` gave an RP-LC retention time of 960 s. As for `COC(=O)c1ccccc1NC(=O)Cn1cccc(-c2nc(-c3ccc(OC)c(OC)c3)no2)c1=O`, the RP-LC retention time turned out to be 871 s. The result for `CCCS(=O)(=O)N1CCOc2ccc(NC(=O)NCC)cc2C1` reads 696 s; that for `CCN1C(=O)COc2ccc(-c3nc(NC(=O)c4cccnc4)sc3C)cc21`, 784 s; that for `CCCN1C(=O)COc2cc(-c3noc(C(=O)NC4CCCCCC4)n3)ccc21`, 1150 s. The compound `CC1CS(=O)(=O)N(c2ccc(C(=O)N3CCN(c4ccccn4)CC3)cc2)C1=O` (stereo unspecified) displayed an RP-LC retention time of 554 s. In turn, `NC1N=C(c2ccccc2)c2ccccc2NC1=O` (stereo unspecified) registered an RP-LC retention time of 568 s. Next, `Cc1nc2cc(-c3noc(Cc4ccccc4Br)n3)ccc2o1`: 1120 s.

In turn, `Cc1ccccc1NC(=O)Cn1cnc2nc(N3CCC(C(=O)NC4CC4)CC3)sc2c1=O` registered an RP-LC retention time of 644 s. Next, `Cc1cc2c(=O)n(CC(=O)Nc3cccc(C(C)C)c3)ccc2s1`: 904 s; `CC(C)CNC(=O)NCCC1CCN(S(=O)(=O)c2ccccc2)CC1`: 808 s; `Cc1ccc(Oc2nccn3c(=O)n(CC(=O)NC(C)CCc4ccccc4)nc23)cc1` (stereo unspecified): 1080 s. Next, `Cc1ccc(S(=O)(=O)N2C(=O)CCC2C(=O)NC2CCCCCCC2)cc1C` (stereo unspecified): 1060 s; `Fc1ccc(-c2nnc(Cc3nc(-c4cccs4)no3)o2)cc1`: 926 s; `Cc1cc(Cl)ccc1OCc1nc(-c2ccc3c(c2)ncn3CCC(=O)N2CCCCC2)no1`: 956 s. In the case of `Cc1ccc(NC(=O)NC2CCN(c3ccc(C)cc3)C2=O)cc1` (stereo unspecified), the RP-LC retention time turned out to be 853 s. `Cc1ccc2cc(CCC(=O)NCCN3CCCCC3)c(=O)[nH]c2c1` displayed an RP-LC retention time of 601 s. `COc1nccnc1N1CCC(N(C)C(=O)NCc2cccc(F)c2)C1` (stereo unspecified) yielded an RP-LC retention time of 697 s. Next, `Cc1cc(Cl)ccc1S(=O)(=O)N1CC(c2nc(-c3ccncc3)no2)C1`: 931 s; `Cc1cc(C)n(-c2cc(N3CCCC3)ncn2)n1`: 764 s.

In the case of `O=S(=O)(NCC(O)c1ccc(C(F)(F)F)cc1)c1ccc2c(c1)CCCC2` (stereo unspecified), the RP-LC retention time was found to be 984 s.

In turn, `Cc1nc(-c2csc(S(=O)(=O)N3CCC(C(=O)N4CCC5(CC4)OCCO5)CC3)c2)no1` came in with an RP-LC retention time of 765 s.

Turning to `CCn1c(=O)sc2cc(S(=O)(=O)N3CCC(C(=O)NCc4ccccc4)CC3)ccc21`, the RP-LC retention time was determined as 845 s. Regarding `O=C(NCc1ccccc1)C(=O)NCC1OCCc2ccccc21` (stereo unspecified), the RP-LC retention time worked out at 893 s. In turn, `Cc1cccc(NC(=O)Cn2nc3c(N(C)C4CCCCC4)nccn3c2=O)c1` returned an RP-LC retention time of 714 s. Next, `Cc1nc2ccc(Cl)cn2c(=O)c1NC(=O)c1ccc([N+](=O)[O-])cc1Cl`: 668 s.

On to `Cc1cccc(CN2CCCn3nc(C(=O)NCCc4ccco4)cc3C2=O)c1`, for which the RP-LC retention time turned out to be 870 s. As for `COc1ccc2[nH]cc(CCN3CC(C(=O)Nc4ccccc4)CC3=O)c2c1` (stereo unspecified), the RP-LC retention time was determined as 748 s. Regarding `CCCN(C(=O)c1ccc(Br)cc1)C1(C(=O)NCc2ccccc2)CCN(C(C)=O)CC1`, the RP-LC retention time was found to be 626 s.
